Test results published in PubChem BioAssay AID1918991 (Molecular Pharmacology Branch, DTP, NCI, 2023).
pIC50: −log10 of the molar value.

Test system: 186277-243-T-J2-PDC complex spheroid growth
Test: Anticancer human tumor 186277-243-T-J2-PDC patient-derived colon adenocarcinoma cell line growth inhibition [AhR]
Conditions: for pIC50: curve of first compound; for viability, T/C: stronger effect = lower value
In short: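 Agents were dosed in half-log steps down from roughly clinical Cmax, or from 10 microM where Cmax was unknown, alone and with AhR antagonists. Read-out: percent test/control growth of tumor spheroids containing HUVEC and MSC stromal cells.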

[1] = second compound 0.1 µM, first compound 0.0316 µM
[2] = second compound 0.1 µM, first compound 0.1 µM
[3] = second compound 0.1 µM, first compound 0.316 µM
[4] = second compound 0.1 µM, first compound 1 µM
[5] = second compound 0.1 µM, first compound 3.16 µM
[6] = second compound 0.1 µM, first compound 10 µM
[7] = second compound 0.316 µM, first compound 0.0316 µM
[8] = second compound 0.316 µM, first compound 0.1 µM
[9] = second compound 0.316 µM, first compound 0.316 µM
[10] = second compound 0.316 µM, first compound 1 µM
[11] = second compound 0.316 µM, first compound 3.16 µM
[12] = second compound 0.316 µM, first compound 10 µM
[13] = second compound 1 µM, first compound 0.0316 µM
[14] = second compound 1 µM, first compound 0.1 µM
[15] = second compound 1 µM, first compound 0.316 µM
[16] = second compound 1 µM, first compound 1 µM
[17] = second compound 1 µM, first compound 3.16 µM
[18] = second compound 1 µM, first compound 10 µM
[19] = second compound 3.16 µM, first compound 0.0316 µM
[20] = second compound 3.16 µM, first compound 0.1 µM
[21] = second compound 3.16 µM, first compound 0.316 µM
[22] = second compound 3.16 µM, first compound 1 µM
[23] = second compound 3.16 µM, first compound 3.16 µM
[24] = second compound 3.16 µM, first compound 10 µM
[25] = second compound 10 µM, first compound 0.0316 µM
[26] = second compound 10 µM, first compound 0.1 µM
[27] = second compound 10 µM, first compound 0.316 µM
[28] = second compound 10 µM, first compound 1 µM
[29] = second compound 10 µM, first compound 3.16 µM
[30] = second compound 10 µM, first compound 10 µM
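Note: spheroids exposed to compounds for seven days before the viability read.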
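Throughout, for viability, T/C: luminescent signal used as a stand-in for viable cell amount; 100% = DMSO vehicle control wells.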

## CCc1c2c(nc3ccc(O)cc13)-c1cc3c(c(=O)n1C2)COC(=O)[C@]3(O)CC + Cc1ccccc1N=Nc1ccc(NC(=O)c2ccnn2C)c(C)c1
Second compound 0.1 µM
  pIC50: 7.13
Second compound 0.316 µM
  pIC50: 7.18
Second compound 1 µM
  pIC50: 7.18
Second compound 3.16 µM
  pIC50: 7.22
Second compound 10 µM
  pIC50: 7.21
Second compound 0.1 µM, first compound 0.000949 µM
  viability, T/C: 119%
Second compound 0.1 µM, first compound 0.003 µM
  viability, T/C: 143%
Second compound 0.1 µM, first compound 0.00949 µM
  viability, T/C: 114%
Second compound 0.1 µM, first compound 0.03 µM
  viability, T/C: 81.7%
Second compound 0.1 µM, first compound 0.0949 µM
  viability, T/C: 42.6%
Second compound 0.1 µM, first compound 0.3 µM
  viability, T/C: 25.4%
Second compound 0.316 µM, first compound 0.000949 µM
  viability, T/C: 114%
Second compound 0.316 µM, first compound 0.003 µM
  viability, T/C: 145%
Second compound 0.316 µM, first compound 0.00949 µM
  viability, T/C: 123%
Second compound 0.316 µM, first compound 0.03 µM
  viability, T/C: 78%
Second compound 0.316 µM, first compound 0.0949 µM
  viability, T/C: 40.5%
Second compound 0.316 µM, first compound 0.3 µM
  viability, T/C: 27%
Second compound 1 µM, first compound 0.000949 µM
  viability, T/C: 128%
Second compound 1 µM, first compound 0.003 µM
  viability, T/C: 157%
Second compound 1 µM, first compound 0.00949 µM
  viability, T/C: 123%
Second compound 1 µM, first compound 0.03 µM
  viability, T/C: 80.5%
Second compound 1 µM, first compound 0.0949 µM
  viability, T/C: 37.9%
Second compound 1 µM, first compound 0.3 µM
  viability, T/C: 24.2%
Second compound 3.16 µM, first compound 0.000949 µM
  viability, T/C: 125%
Second compound 3.16 µM, first compound 0.003 µM
  viability, T/C: 138%
Second compound 3.16 µM, first compound 0.00949 µM
  viability, T/C: 119%
Second compound 3.16 µM, first compound 0.03 µM
  viability, T/C: 77%
Second compound 3.16 µM, first compound 0.0949 µM
  viability, T/C: 33.6%
Second compound 3.16 µM, first compound 0.3 µM
  viability, T/C: 21.1%
Second compound 10 µM, first compound 0.000949 µM
  viability, T/C: 106%
Second compound 10 µM, first compound 0.003 µM
  viability, T/C: 114%
Second compound 10 µM, first compound 0.00949 µM
  viability, T/C: 106%
Second compound 10 µM, first compound 0.03 µM
  viability, T/C: 76.6%
Second compound 10 µM, first compound 0.0949 µM
  viability, T/C: 34.2%
Second compound 10 µM, first compound 0.3 µM
  viability, T/C: 21.9%

## Nc1ccccc1NC(=O)c1ccc(CNC(=O)OCc2cccnc2)cc1 + Cc1ccccc1N=Nc1ccc(NC(=O)c2ccnn2C)c(C)c1
Second compound 0.1 µM
  pIC50: 5.23
Second compound 0.316 µM
  pIC50: 5.27
Second compound 1 µM
  pIC50: 5.25
Second compound 3.16 µM
  pIC50: 5.29
Second compound 10 µM
  pIC50: 5.39
[1]
  viability, T/C: 97.5%
[2]
  viability, T/C: 90%
[3]
  viability, T/C: 95.1%
[4]
  viability, T/C: 105%
[5]
  viability, T/C: 88.3%
[6]
  viability, T/C: 16.5%
[7]
  viability, T/C: 106%
[8]
  viability, T/C: 95.9%
[9]
  viability, T/C: 96.7%
[10]
  viability, T/C: 94.4%
[11]
  viability, T/C: 79%
[12]
  viability, T/C: 16.2%
[13]
  viability, T/C: 102%
[14]
  viability, T/C: 96.7%
[15]
  viability, T/C: 108%
[16]
  viability, T/C: 91.4%
[17]
  viability, T/C: 85.4%
[18]
  viability, T/C: 15%
[19]
  viability, T/C: 93.9%
[20]
  viability, T/C: 97.7%
[21]
  viability, T/C: 84.8%
[22]
  viability, T/C: 96.8%
[23]
  viability, T/C: 75.9%
[24]
  viability, T/C: 13.2%
[25]
  viability, T/C: 82.8%
[26]
  viability, T/C: 94.2%
[27]
  viability, T/C: 96.5%
[28]
  viability, T/C: 97.4%
[29]
  viability, T/C: 61.2%
[30]
  viability, T/C: 12.6%

## Nc1ccn(C2OC(CO)C(O)C2(F)F)c(=O)n1 (stereo not given) + Cc1ccccc1N=Nc1ccc(NC(=O)c2ccnn2C)c(C)c1
Second compound 0.1 µM
  pIC50: > 7.50
Second compound 0.316 µM
  pIC50: > 7.50
Second compound 1 µM
  pIC50: > 7.50
Second compound 3.16 µM
  pIC50: > 7.50
Second compound 10 µM
  pIC50: > 7.50
[1]
  viability, T/C: 16.6%
[2]
  viability, T/C: 15.3%
[3]
  viability, T/C: 14.9%
[4]
  viability, T/C: 16.3%
[5]
  viability, T/C: 18.7%
[6]
  viability, T/C: 17.1%
[7]
  viability, T/C: 14.9%
[8]
  viability, T/C: 14.5%
[9]
  viability, T/C: 16.5%
[10]
  viability, T/C: 18%
[11]
  viability, T/C: 17.4%
[12]
  viability, T/C: 17.4%
[13]
  viability, T/C: 16%
[14]
  viability, T/C: 16%
[15]
  viability, T/C: 16.4%
[16]
  viability, T/C: 17%
[17]
  viability, T/C: 18.3%
[18]
  viability, T/C: 19.4%
[19]
  viability, T/C: 14.6%
[20]
  viability, T/C: 13%
[21]
  viability, T/C: 15.7%
[22]
  viability, T/C: 15.3%
[23]
  viability, T/C: 17.1%
[24]
  viability, T/C: 17.1%
[25]
  viability, T/C: 16%
[26]
  viability, T/C: 15.9%
[27]
  viability, T/C: 16.6%
[28]
  viability, T/C: 17.8%
[29]
  viability, T/C: 18%
[30]
  viability, T/C: 18.8%

## O=C(c1cc(Cc2n[nH]c(=O)c3ccccc23)ccc1F)N1CCN(C(=O)C2CC2)CC1 + Cc1ccccc1N=Nc1ccc(NC(=O)c2ccnn2C)c(C)c1
Second compound 0.1 µM
  pIC50: < 5.00
Second compound 0.316 µM
  pIC50: < 5.00
Second compound 1 µM
  pIC50: < 5.00
Second compound 3.16 µM
  pIC50: < 5.00
Second compound 10 µM
  pIC50: < 5.00
[1]
  viability, T/C: 102%
[2]
  viability, T/C: 95.4%
[3]
  viability, T/C: 95.5%
[4]
  viability, T/C: 101%
[5]
  viability, T/C: 99.2%
[6]
  viability, T/C: 123%
[7]
  viability, T/C: 94%
[8]
  viability, T/C: 111%
[9]
  viability, T/C: 97.5%
[10]
  viability, T/C: 101%
[11]
  viability, T/C: 100%
[12]
  viability, T/C: 127%
[13]
  viability, T/C: 105%
[14]
  viability, T/C: 87.3%
[15]
  viability, T/C: 110%
[16]
  viability, T/C: 95.1%
[17]
  viability, T/C: 113%
[18]
  viability, T/C: 127%
[19]
  viability, T/C: 109%
[20]
  viability, T/C: 96.5%
[21]
  viability, T/C: 104%
[22]
  viability, T/C: 101%
[23]
  viability, T/C: 106%
[24]
  viability, T/C: 111%
[25]
  viability, T/C: 85.6%
[26]
  viability, T/C: 86.1%
[27]
  viability, T/C: 101%
[28]
  viability, T/C: 93.3%
[29]
  viability, T/C: 93.6%
[30]
  viability, T/C: 91.6%
